Consider two compounds from patent publication US20260258015A1, “CRYSTALLINE FORMS OF 2-(4-(4-(AMINOMETHYL)-1-OXO-1,2- DIHYDROPHTHALAZIN-6-YL)-1-METHYL-1H- PYRAZOL-5-YL)-4-CHLORO-6-CYCLOPROPOXY-3-FLUOROBENZONITRILE” (MIRATI THERAPEUTICS, INC., priority 2023, published 2026).

The conditions of series [1]: acids (counterions) used in the salt screen of Compound 1; cited from earlier work.
Series [2] in a line: Behaviour of the isolated solid after air drying at ambient condition (hygroscopicity). In kind it is physicochemical. Particulars: solid from slurry of free base, sulfuric acid and THF; air dried at ambient condition. The protocol:
Using the amorphous free base from Example 1, 64 salt screen experiments were conducted using 16 acids in four solvent systems, plus four blank experiments in each respective solvent system. Slurry methods as disclosed herein were used to provide salt polymorphs of Compound 1. […] After magnetically stirring for four days at room temperature, any precipitation was isolated by centrifugation. If there was no precipitation after four days at room temperature, the clear solutions were transferred to stir at 5° C. to induce crystallization for 24 hours. If still no solids were observed, the final clear solution was subjected to slow evaporation at room temperature for four days. Any isolated solid was air dried at ambient condition before analysis.
[…]. As such, DSC/TGA data were not collected.

What is called pKa is the negative logarithm of the acid dissociation constant. On to `O=C(O)CC(O)C(=O)O` (centres unmarked) [Malic acid], for which the pKa in series [1] is listed as 3.16.

Regarding `Cn1ncc(-c2ccc3c(=O)[nH]nc(CN)c3c2)c1-c1c(F)c(Cl)cc(OC2CC2)c1C#N.O=S(=O)(O)O` [sulfate salt Form A, 2-(4-(4-(aminomethyl)-1-oxo-1,2-dihydrophthalazin-6-yl)-1-methyl-1H-pyrazol-5-yl)-4-chloro-6-cyclopropoxy-3-fluorobenzonitrile sulfate], the “state of the solid after air drying (hygroscopicity)” value in series [2] is on record as “remained a wet paste, likely due to hygroscopicity”.
